The source of these data is PMC4929566, “The metabolome of [2-^14C](−)-epicatechin in humans: implications for the assessment of efficacy, safety, and mechanisms of action of polyphenolic bioactives” (Scientific Reports, 2016).

Broadly, the Cmax is the maximum level reached in the sampled fluid or tissue. Usually Tmax stands for the time from dosing to the highest level.

Read-outs that look alike come from different tables or passages of the source.

A short description of data set [1]: Metabolite profiling and pharmacokinetics in plasma (targeted HPLC-MS2). The format is in vivo, humans. The settings on record: human plasma, oral 60 mg 14C-EC; for AUC0-24h / Cmax / T1/2 (elimination half-life) / Tmax / AUC(0-t) / half-life: mean ± SEM n=8; for AUC(0-t): read-out: AUC0-24h; for half-life: read-out: T1/2 (elimination half-life) (converted). The method, then:
(§1) The study was a single-center, open-label, and non-randomized study with two distinct elements: a run-in phase to establish a more defined dietary background of dietary flavanols and procyanidins and the subsequent ^14C-EC ADME study (Fig. 1B). Participants (n = 12) were enrolled in the run-in phase (day –17 to day –4) and asked to supplement their daily diet for 14 days with a commercially available flavanol-containing cocoa-based drink (250 mg cocoa flavanols; 40 mg of EC). This was followed by a 4-day period (day –4 to 0) of a low-flavanol diet. One day (study day -1) prior to the initialization of the ^14C-EC ADME study, all eligible participants were accommodated under controlled conditions at a metabolic research facility (Covance Clinical Pharmacology Inc., Wisconsin) until completion of the study. Based on the compliance of the first part of the study, 8 participants were selected to participate in the ^14C-EC ADME study. During the ^14C-EC ADME study (Fig. 1B.), volunteers received a low-flavanol, standardized high-fiber diet, and were encouraged to maintain an adequate level of hydration (water ad libitum). Volunteers were asked to fast for 8 h before the initiation of the study and for at least 4 h after the intake of the ^14C-EC test drink (water ad libitum). Venous blood samples were taken using Vacutainer collection tubes, containing potassium EDTA at 0 h (just prior to ^14C-EC ingestion), and at 0.25, 0.5, 1, 1.5, 2, 2.5, 3, 4, 6, 8, 10, 12, 16, 24, 36, and 48 h after test drink consumption. Plasma was obtained by whole blood centrifugation at 2000 × g for 15 min at 5 °C, separated into aliquots and stored at −80 °C until analysis. All urine and feces from the time just prior to the consumption of the test drink were collected at different time intervals for radioactivity and metabolite profiling. Clinical parameters and laboratory evaluations of participants were assessed at screening, on study day –1, and after completing the study, as detailed in Supplementary Methods.
(§2) Samples were processed as described previously[18] and analyzed by HPLC-MS^2 in conjunction with an on-line HPLC-radioactivity monitor as described in SI Materials and Methods. Identification of metabolites involved comparing the retention time with authentic standards and MS^2 fragmentation patterns (Supplementary Methods). Quantification of metabolites in urine was based on HPLC radioactivity peak area (limit of quantification: 10^3 dpm). Due to the low levels of radioactivity, quantification in plasma was based on targeted HPLC-MS^2 using standard curves obtained with authentic standards (Supplementary Methods).
Data are expressed as mean values ± standard error, or as otherwise specified. Pharmacokinetic parameters were calculated using non-compartmental analysis with WinNonlin (Pharsight Corporation, Version 5.2).
5-20% acetonitrile in 0.1 % formic acid. Supplementary Table S2 provides details of HPLC retention times and the m/z values that were monitored.
Supplementary Table S2. Detection of (−)-epicatechin metabolites. HPLC retention times and selected reaction monitoring ions used for the HPLC-MS analysis of (−)-epicatechin metabolites in plasma. […]
Structurally related (-)-epicatechin metabolites in humans: assessment using de novo chemically synthesized authentic standards. Free Radic Biol Med 52, 1403- […]
3 Borges, G. et al. Bioavailability of multiple components following acute ingestion of a polyphenol-rich juice drink. Mol Nutr Food Res 54 Suppl 2, S268-277, […]
4 Stalmach, A. et al. Absorption, metabolism, and excretion of green tea flavan-3-ols in humans with an ileostomy. Mol Nutr Food Res 54, 323-334,

A short description of data set [2]: Metabolite profiling and quantification in urine (HPLC-MS2 with on-line radioactivity detector). The format is in vivo, humans. The following applies: human, oral 207 μmol 14C-EC, mean ± SEM n=8. The method, then: as §1, §2
HPLC-MS identifications of radiolabeled [2-14C](−)-epicatechin metabolites in urine Urine was analyzed with radioactivity and mass spectrometry (MS) detection using a 250 mm x 4.6 mm i.d. 5 µm Luna Phenyl-Hexyl column (Phenomenex, Macclesfield, UK) […]
formic acid. Metabolite identification was performed by 1) co-chromatography of metabolites with reference compounds and a comparison of their MS fragmentation patterns 2, 2) by comparing m/z fragmentation patterns with earlier in-house observed […]
patterns to databases of metabolites reported in earlier polyphenol feeding studies5-7.
Supplementary Table S2, which also provides information on the MSI MI (Metabolite Standards Initiative – Metabolites Identification) level, a confidence level for identification where level 1 stands for fully elucidated (i.e., by comparison with a standard) and level 2 for a well characterized, but not yet fully structurally elucidated 8

As to `O=S(=O)(O)Oc1cc(O)cc2c1C[C@@H](O)[C@@H](c1ccc(O)c(O)c1)O2` [(−)-Epicatechin-5-sulfate], in data set [1], the AUC0-24h was found to be 0.092 ± 0.025 µM·h, the peak concentration (Cmax) came to 32 ± 4 nM, the “T1/2 (elimination half-life)” value came to 1.9 ± 0.3 h and the Tmax worked out at 0.8 ± 0.1 h. Further, the “Metabolite present in urine, collection period 0–48 h” value in data set [2] is given as 1.3 ± 0.2 μ mol. The “Metabolite present in urine, collection period 0–4 h” value in data set [2] (– = not detected) was determined as 1.3 ± 0.2 μ mol.
For the molecule `O=C(O)[C@H]1O[C@@H](Oc2cc([C@H]3Oc4cc(O)cc(O)c4C[C@H]3O)ccc2O)[C@H](O)[C@@H](O)[C@@H]1O` [(−)-Epicatechin-3′-O-glucuronide, (−)-epicatechin-3′-O-β-D-glucuronide], in data set [1] (male), the Cmax stood at 359 ± 23 nM, the AUC(0-t) stood at 1.62 ± 0.332 µM·h and the half-life was 2 ± 1.1 h. The Tmax in data set [1] (male, read-out: Tmax) came out at 0.8 ± 0.1 h. For the same molecule, the “Metabolite present in urine, collection period 0–48 h” value in data set [2] is given as 18.6 ± 2.5 μ mol. In data set [2] (– = not detected), the “Metabolite present in urine, collection period 0–4 h” value is recorded as 8.0 ± 1.4 μ mol; the “Metabolite present in urine, collection period 4–8 h” value is on record as 5.7 ± 1.3 μ mol; the “Metabolite present in urine, collection period 8–12 h” value came out at 2.9 ± 0.8 μ mol; the “Metabolite present in urine, collection period 12–24 h” value was 2.0 ± 0.8 μ mol.
Consider `COc1ccc([C@H]2Oc3cc(OS(=O)(=O)O)cc(O)c3C[C@H]2O)cc1O` [4′-O-Methyl-(−)-epicatechin-7-sulfate], for which, in data set [1], the AUC0-24h was 0.166 ± 0.054 µM·h, the Cmax stood at 33 ± 5 nM, the “T1/2 (elimination half-life)” value came out at 2.6 ± 0.5 h and the Tmax is reported as 1.4 ± 0.2 h. For the same molecule, the “Metabolite present in urine, collection period 0–48 h” value in data set [2] came to 0.4 ± 0.2 μ mol. For the same molecule, in data set [2] (– = not detected), the “Metabolite present in urine, collection period 0–4 h” value was determined as 0.3 ± 0.1 μ mol and the “Metabolite present in urine, collection period 4–8 h” value is on record as 0.1 ± 0.1 μ mol.
As to `COc1cc([C@H]2Oc3cc(O)cc(O)c3C[C@H]2O)ccc1OS(=O)(=O)O` [3′-O-Methyl-(−)-epicatechin-4′-sulfate], in data set [1], the AUC0-24h is 0.203 ± 0.069 µM·h, the Cmax stood at 53 ± 13 nM, the “T1/2 (elimination half-life)” value came to 2.3 ± 0.6 h and the Tmax was 0.9 ± 0.1 h. Further, the “Metabolite present in urine, collection period 0–48 h” value in data set [2] came out at 0.7 ± 0.2 μ mol. Besides, the “Metabolite present in urine, collection period 0–4 h” value in data set [2] (– = not detected) is 0.7 ± 0.2 μ mol.
Regarding `COc1cc([C@H]2Oc3cc(O)cc(OS(=O)(=O)O)c3C[C@H]2O)ccc1O` [3′-O-Methyl-(−)-epicatechin-5-sulfate, 3′-O-methyl-(−)-epicatechin-5-sulfate], in data set [1] (male), the Cmax is 240 ± 24 nM, the AUC(0-t) turned out to be 0.915 ± 0.178 µM·h and the half-life was 1.6 ± 0.1 h. In addition, in data set [1] (male, read-out: Tmax), the Tmax was determined as 0.9 ± 0.1 h. Also, the “Metabolite present in urine, collection period 0–48 h” value in data set [2] amounted to 9.6 ± 1.2 μ mol. Further, in data set [2] (– = not detected), the “Metabolite present in urine, collection period 0–4 h” value was 7.1 ± 0.9 μ mol; the “Metabolite present in urine, collection period 4–8 h” value is recorded as 1.8 ± 0.3 μ mol; the “Metabolite present in urine, collection period 8–12 h” value is 0.4 ± 0.1 μ mol; the “Metabolite present in urine, collection period 12–24 h” value is 0.3 ± 0.2 μ mol.
As to `COc1ccc([C@H]2Oc3cc(O)cc(OS(=O)(=O)O)c3C[C@H]2O)cc1O` [4′-O-Methyl-(−)-epicatechin-5-sulfate], in data set [1], the AUC0-24h stood at 0.128 ± 0.045 µM·h, the Cmax is 53 ± 14 nM, the “T1/2 (elimination half-life)” value is given as 1.4 ± 0.3 h and the Tmax came to 0.9 ± 0.1 h. Besides, the “Metabolite present in urine, collection period 0–48 h” value in data set [2] is 1.1 ± 0.3 μ mol. Besides, in data set [2] (– = not detected), the “Metabolite present in urine, collection period 0–4 h” value was 1.0 ± 0.2 μ mol and the “Metabolite present in urine, collection period 4–8 h” value is reported as 0.1 ± 0.1 μ mol.
On to `O=C1CCC(Cc2ccc(O)c(OS(=O)(=O)O)c2)O1` (stereo not shown) [5-(4′-hydroxyphenyl)-γ-valerolactone-3′-sulfate], for which, in data set [1] (male), the Cmax was found to be 272 ± 56 nM, the AUC(0-t) was found to be 7.59 ± 2.68 µM·h and the half-life was 6.3 ± 1.7 h. Also, the Tmax in data set [1] (male, read-out: Tmax) amounted to 6.4 ± 1 h. Moreover, the concentration at 24 h in data set [1] (male, read-out: Plasma concentration 24 h after ingestion) is around 50 nM. The “Metabolite present in urine, collection period 0–48 h” value in data set [2] stood at 38.0 ± 4.7 μ mol. In addition, in data set [2] (– = not detected), the “Metabolite present in urine, collection period 0–4 h” value worked out at 3.6 ± 1.1 μ mol; the “Metabolite present in urine, collection period 4–8 h” value came out at 16.0 ± 3.0 μ mol; the “Metabolite present in urine, collection period 8–12 h” value stood at 9.8 ± 2.0 μ mol; the “Metabolite present in urine, collection period 12–24 h” value is 8.1 ± 2.9 μ mol. Moreover, in data set [2] (– = not detected), the “Metabolite present in urine, collection period 24–48 h” value is recorded as 0.5 ± 0.5 μ mol.
`O=S(=O)(O)Oc1cc([C@H]2Oc3cc(O)cc(O)c3C[C@H]2O)ccc1O` [(−)-Epicatechin-3′-sulfate, (−)-epicatechin-3′-sulfate]: in data set [1] (male), the Cmax is 191 ± 17 nM, the AUC(0-t) is 0.633 ± 0.135 µM·h and the half-life is 2 ± 0.3 h. Also, the Tmax in data set [1] (male, read-out: Tmax) was determined as 1.1 ± 0.1 h. Moreover, in data set [2], the “Metabolite present in urine, collection period 0–48 h” value was determined as 7.7 ± 0.9 μ mol. In data set [2] (– = not detected), the “Metabolite present in urine, collection period 0–4 h” value was 6.0 ± 0.7 μ mol; the “Metabolite present in urine, collection period 4–8 h” value is 1.2 ± 0.4 μ mol; the “Metabolite present in urine, collection period 8–12 h” value amounted to 0.3 ± 0.1 μ mol; the “Metabolite present in urine, collection period 12–24 h” value is 0.2 ± 0.2 μ mol.
